# Laboratory results: patent US8895260B2, “Screening assay for ribosomal antibiotics” (priority 2006, dated 2014)
# Assays:
# Assay type in all cases: cell-based, Mycobacterium smegmatis
# [1] = system: wild type bacterial cells 1408A; assay: MIC of rRNA mutants, wild type bacterial cells 1408A
# Protocol: (§1) The recombinants carrying the respective mutational alterations in the functional rRNA operon were colony-purified and subjected to determinations of minimal inhibitory concentrations (MIC) to determine ribosomal drug susceptibility. Cultures from single colonies were grown in LB medium supplemented with 0.05% Tween 80 and used for MIC tests in a microtiter plate format. Starting cultures contained 200 μl of bacterial cells at an optical density of 0.025 at 600 nm, and the respective drug was added in twofold series of dilution.
# (§2) This was illustrated by the polymorphism of 16S rRNA position 1408 and susceptibility to 4,6-aminoglycosides with a 6′ NH3 group (e.g. gentamicin, tobramycin, kanamycin). 4,6-aminoglycosides with a 6′ NH3 group bound to the ribosomal A-site encompassing nucleotides […] and selectively targeted the bacterial ribosome, but not the eukaryotic cytoplasmic ribosome. An important polymorphism in the rRNA concerns nucleotide position 1408: prokaryotic ribosomes are characterized by an adenine, eukaryotic cytoplasmic ribosomes by a guanine. Replacing the adenine by a guanine at 16S rRNA position 1408 made the bacterial ribosome completely unsusceptible towards 4,6-amino-glycosides with a 6′ NH3 group (see Table). […]
# [2] = system: mutant bacterial cells 1408G; assay: MIC of rRNA mutants, mutant bacterial cells 1408G (human cytoplasmic nucleotide at 16S rRNA position 1408)
# Protocol: as §1, §2
# [3] = system: bacterial hybrid ribosomes carrying Leishmania Trypanosoma rRNA decoding site; assay: MIC, bacterial hybrid ribosomes carrying protozoan rRNA decoding site; design: unit not given here; details: Leishmania Trypanosoma decoding site in bacterial hybrid ribosome
# Protocol: as §1
# (§3) The MIC data shown below in example 5 were obtained with bacterial hybrid ribosomes carrying human and protozoan rRNA decoding sites in a method of the invention. […] Nucleotide positions depicted in bold represent residues that are specific for the corresponding eukaryotic decoding site. The part of the human and protozoan decoding sites introduced into the bacterial ribsosome is boxed. The nucleotide positions are numbered according to the numbering of homologous positions in E. coli 16S rRNA.
# [4] = system: bacterial hybrid ribosomes carrying Homo sapiens mitochondrion rRNA decoding site; assay: MIC, bacterial hybrid ribosomes carrying human mitochondrial rRNA decoding site; design: unit not given here; details: Homo sapiens mitochondrion decoding site in bacterial hybrid ribosome
# Protocol: as §1, §3
# M. smegmatis = assay: MIC, M. smegmatis with bacterial rRNA decoding site; design: unit not given here
# Protocol: as §1, §3
Molecule,"MIC ([1]; Mycolicibacterium smegmatis, 72 h, read-out: MIC, minimal inhibitory concentration)","MIC ([2]; Mycolicibacterium smegmatis, CELLS1408G, 72 h, read-out: MIC, minimal inhibitory concentration)",MIC [3],MIC [4],MIC (M. smegmatis),"MIC, minimal inhibitory concentration ([1]; wild type bacterial cells 1408A, 72h at 37° C.)","MIC, minimal inhibitory concentration ([2]; mutant bacterial cells 1408G, 72h at 37° C.)"
NC[C@H]1O[C@H](O[C@H]2[C@H](O)[C@@H](O[C@H]3O[C@H](CO)[C@@H](O)[C@H](N)[C@H]3O)[C@H](N)C[C@@H]2N)[C@H](N)C[C@@H]1O [Tobramycin],2 µg/mL,> 1020 µg/mL,,,,,
Neomycin,,,>1024,16-32,0.5,,
Gentamicin,,,>1024,64-128,1,1 µg/mL,>1024 µg/mL
